# Experimental data reported in article PMC4319692 (Molecular Pharmaceutics, 2014).
# Test: Metabolic stability in human liver microsomes
# Type: in vitro ADME
# Details: 10 μM, pooled human liver microsomes 1 mg/mL with cofactors, 2 h
smiles,measurement,value
C[C@]12CC[C@H]3[C@@H](CCC4=CC(=O)CC[C@@]43C)[C@@H]1CC[C@@H]2O [testosterone],decrease (disappearance) of parent compound,more than 95%
